# According to PMC5984089, “FBXW7 regulates DISC1 stability via the ubiquitin-proteosome system” (Molecular Psychiatry, 2017):
# Residues, ends and D or L forms follow the SMILES beside them. *: point of attachment. Cbz = O=C(OCc1ccccc1)*
# System: DISC1, neural progenitors derived from control subjects
# Assay: DISC1 protein level in control iPS-derived neural progenitors, western blot
# Type: cell-based, human
# Conditions: MG132 10 µM, day 18, up to 3 hours, n=2, western blot
# From the text: All iPS derived neural progenitors were provided by Pfizer Neuroscience (Cambridge, MA, USA). The iPS cell lines D2 and D3 and family control cell line C1 were generated using a non-integrated approach by Dr Hongjun Song at Johns Hopkins University and cultured as described previously.[8] The Detroit iPS cell line was generated by Dr S. Engle at Pfizer Neuroscience. Detroit 551 fibroblasts were obtained from ATCC (CCL-110) and maintained in Knockout DMEM (Life Technologies 10829-018), 15% FBS (Life Technologies), 1x Non-essential amino acids (Life Technologies 11140-050), 2 mM L-glutamine (Life Technologies 25030-081), 1x Gentamicin (Life Technologies 15710-072), 0.1 mM β-mercaptoethanol (Sigma M-7522). The cells were reprogrammed with individual lentiviruses expressing c-MYC, KLF4, SOX2, OCT3/4, NANOG, and LIN28. One colony, Detroit 551-3, with ES-like morphology, high expression of pluripotency markers (for example, OCT3/4, TRA-1-60, TRA-1-81, SSEA4), a normal karyotype, […] the ability to form all three germ layers in a teratoma assay was used in all subsequent experiments. […]
smiles,measurement,value
CC(C)C[C@@H](C=O)NC(=O)[C@H](CC(C)C)NC(=O)[C@H](CC(C)C)NC(=O)OCc1ccccc1 [MG132] (Cbz-Leu-Leu-Leu-aldehyde),"DISC1 protein level in NPs from Detroit (control) iPS cells, proteasomal inhibition",stabilization of DISC1 protein levels within first 30 min up to 3 hours
